Data as given in patent US9193687B2 (priority 2007, dated 2015).
Structures can show the parent of a compound that is named as a salt. Where two headings read alike, the source gives them in different places.

Assays:
[1] = tested on: prostate cancer (PC3); assay: cells; conditions: Homo sapiens, read-out: Cytotoxicity IC50, PC3
[2] = tested on: lung cancer H460; assay: cells; conditions: Homo sapiens, NCI-H460, read-out: Cytotoxicity IC50, H460
[3] = tested on: lung cancer H1299; assay: cells; conditions: Homo sapiens, NCI-H1299, read-out: Cytotoxicity IC50, H1299
[4] = tested on: CCRF-CEM human lymphoblastic leukemia cells; assay: cells; conditions: read-out: Cytotoxicity IC50, CCRF-CEM
[5] = tested on: Human colon carcinoma HCT-116 cells; assay: cells
[6] = tested on: human mammary carcinoma MX-1 xenograft; assay: Antitumor therapeutic effect against MX-1 xenograft in nude mice; assay type: in vivo
Method: Athymic nude mice bearing the nu/nu gene were obtained from NCI, Frederick, Md. and used for all human tumor xenografts. Male nude mice 6 weeks or older weighing 20-24 g or more were used. Compounds were administered via the tail vein for i.v. injection or infusion as described previously.^64 A typical formulation for chemotherapeutic studies for each drug was dissolved in DSMO to make a 25 mg/ml fresh solution, 0.4 ml of this solution was mixed with 0.3 ml of Tween 80, plus 1.3 ml to make 2 ml of 5 mg/ml solution. Bolus injection volume was 0.1-0.2 ml per mouse. Tumor volume was assessed by measuring length×width×height (or width) by using a caliper. For tumor-bearing nude mice during the course of the experiment, the body weight refers to total weight minus the weight of the tumor. All animal studies were conducted in accordance with the guidelines for the National Institute of Health Guide for the Care and Use of Animals and the protocol approved by the Institutional Animal Care and Use Committee.
The therapeutic effects of a drug against human tumor xenografts in nude mice, under the optimal therapeutic conditions but without any lethality due to drug toxicity, the following degrees of therapeutic effects are defined and calculated by the following formula: […]
where • T0 is the initial tumor size (in mm^3) at beginning of drug treatment; • Tc is tumor size of untreated control group on a given date; and • Tx is tumor size of the drug treated group on a given date.
[formula] • Tumor disappearance (complete remission or CR) is defined by the effect where • [Tx=0] for a period of time (in days) for a proportion of animals (NCR/N), where • N is the total number of animals in the group, and NCR is the number of mice in the group that achieved CR. • Tumor relapse is quantitatively calculated by • [The Day tumor relapsed (Drelp)—The Day CR achieved (DCR)] (Eq. 3) for a proportion of animals (Nrelp/N) where N is the total number of animals in the group, and Nrelp is the number of the mice in the group that relapsed. • The log cell kill (LCK) of the tumor tissue after a given chemotherapy that reached CR is estimated by: LCK=log [2^(Tumor remission in days/Tumor doubling time in days)] (Eq. 4)
Athymic nude mice bearing the nu/nu gene were used for human breast tumor MX-1 xenograft (FIGS. 3 and 4) and human brain glioma U87 GM xenograft (FIG. 5). Nude mice were obtained from National Cancer Institute, Frederick, Md. Male mice 6 weeks old or older weighing 22 g or more were used for experiments with subcutaneous tumor inoculation as described previously.^67 Drug was administrated via the tail vein by iv injection. Tumor volumes were assessed by measuring length×width×height (or width) by using caliper. Vehicle used was 20 μL DMSO in 180 μL saline. All animal studies were conducted in accordance with the guidelines of the U.S. National Institutes of Health Guide for the Care and Use of Animals and the protocol approved by the Institutional Animal Care and Use Committee.

[7] = tested on: Human mammary carcinoma (MX-1) tumor cells; assay: In vitro cytotoxicity, SRB assay, 72-hr incubation; conditions: Homo sapiens, 72 h, read-out: Cytotoxicity IC50, MX-1
[8] = tested on: CCRF-CEM/Taxol; assay: In vitro cytotoxicity, XTT assay, taxol-resistant subline; conditions: Homo sapiens, CCRF-CEM, 72 h, read-out: Cytotoxicity IC50, CCRF-CEM/Taxol
[9] = HCT-116, read-out: Cytotoxicity IC50, HCT-116
[10] = HCT-116, 72 h, read-out: Cytotoxicity IC50, HCT-116

Row | SMILES | IC50 [1] [µM] | IC50 [2] [µM] | IC50 [3] [µM] | IC50 [4] [µM] | IC50 [5, 9] [µM] | Therapeutic effect: tumor growth suppression ([6]; 75 mg/kg, QDx8, i.v., 1/1 mouse) | Maximal body-weight loss (%) ([6]; i.v. injection, dose and schedule per compound as in Table 3) | IC50 ([4]; 72 h) [µM] | IC50 [5, 10] [µM] | IC50 [7] [µM] | IC50 [8] [µM] | Remark (dose tolerability) ([6]; BO-1053 70 mg/kg Q2Dx5, BO-1063 and BO-1065 100 mg/kg QDx3, i.v.)
1 | O=C(CCN1CCOCC1)Nc1cccc(NC(=O)Nc2ccc(N(CCCl)CCCl)cc2)c1 [BO-2148] | 35.5 | 38.5 | 15.9 | 3.1 | 16.8 |  |  |  |  |  |  | 
2 | O=C(CCN1CCC(N2CCCCC2)CC1)Nc1cccc(NC(=O)Nc2ccc(N(CCCl)CCCl)cc2)c1 [BO-2191, 3-([1,4′-bipiperidin]-1′-yl)-N-(3-(3-(4-(bis(2-chloroethyl)amino)phenyl)ureido)phenyl)propanamide hydrochloride] | 22.1 | 14.2 | 11 | 1.63 | 15.7 |  |  |  |  |  |  | 
3 | O=C(CN1CCCC1)Nc1cccc(NC(=O)Nc2ccc(N(CCCl)CCCl)cc2)c1 [BO-2151, N-(3-(3-(4-(bis(2-chloroethyl)amino)phenyl)ureido)-phenyl)-2-(pyrrolidin-1-yl)acetamide] | 12.8 | 6.55 | 9.36 | 3.41 | 5.41 |  |  |  |  |  |  | 
4 | O=C(CCN1CCCC1)Nc1ccc(NC(=O)Nc2ccc(N(CCCl)CCCl)cc2)cc1 [BO-2075] | 3.48 | 1.03 | 6.43 | 0.28 | 1.48 |  |  |  |  |  |  | 
5 | CN(C)CCC(=O)Nc1cccc(NC(=O)Nc2ccc(N(CCCl)CCCl)cc2)c1 [BO-2091, N-(3-(3-(4-(bis(2-chloroethyl)amino)-phenyl)ureido)phenyl)-3-(dimethylamino)-propanamide] | 13.5 | 16.8 | 8.99 | 0.52 | 3.28 |  |  |  |  |  |  | 
6 | CN(C)CC(=O)Nc1ccc(NC(=O)Nc2ccc(N(CCCl)CCCl)cc2)cc1 [BO-2095] | 7.33 | 1.21 | 5.36 | 0.29 | 2.54 |  |  |  |  |  |  | 
7 | O=C(CN1CCOCC1)Nc1ccc(NC(=O)Nc2ccc(N(CCCl)CCCl)cc2)cc1 [BO-2096] | 16 | 4.74 | 18.6 | 1.13 | 6.67 |  |  |  |  |  |  | 
8 | O=C(CCN1CCCCC1)Nc1cccc(NC(=O)Nc2ccc(N(CCCl)CCCl)cc2)c1 [BO-2147, N-(3-(3-(4-(Bis(2-chloroethyl)amino)phenyl)ureido)-phenyl)-3-(piperidin-1-yl)-propanamide] | 5.73 | 7.88 | 4.63 | 0.39 | 3.51 |  |  |  |  |  |  | 
9 | CN(C)CC(=O)Nc1cccc(NC(=O)Nc2ccc(N(CCCl)CCCl)cc2)c1 [BO-2189, N-(3-(3-(4-(bis(2-chloroethyl)amino)phenyl)ureido)phenyl)-2-(dimethyl-amino)acetamide] | 19 | 8.74 | 10.6 | 0.78 | 9.56 |  |  |  |  |  |  | 
10 | CCN(CC)CC(=O)Nc1cccc(NC(=O)Nc2ccc(N(CCCl)CCCl)cc2)c1 [BO-2183] | 13 | 5.67 | 11.7 | 2.01 | 4.62 |  |  |  |  |  |  | 
11 | O=C(CCN1CCC(N2CCCCC2)CC1)Nc1ccc(NC(=O)Nc2ccc(N(CCCl)CCCl)cc2)cc1 [BO-2118] | 30 | 14.5 | 36 | 0.72 | 11.1 |  |  |  |  |  |  | 
12 | O=C(CN1CCCCC1)Nc1cccc(NC(=O)Nc2ccc(N(CCCl)CCCl)cc2)c1 [BO-2184] | 10.1 | 5.62 | 8.55 | 1.35 | 7.5 |  |  |  |  |  |  | 
13 | CCN(CC)CCC(=O)Nc1ccc(NC(=O)Nc2ccc(N(CCCl)CCCl)cc2)cc1 [BO-2073, N-(4-(3-(4-(Bis(2-chloroethyl)amino)phenyl)ureido)-phenyl)-3-(diethylamino)-propanamide] | 2.47 | 1.83 | 10.3 | 0.3 | 2.09 |  |  |  |  |  |  | 
14 | O=C(CN1CCCCC1)Nc1ccc(NC(=O)Nc2ccc(N(CCCl)CCCl)cc2)cc1 [BO-2092, N-(4-(3-(4-(bis(2-chloroethyl)amino)phenyl)ureido)-phenyl)-2-(piperidin-1-yl)-acetamide] | 2.24 | 1.05 | 2.52 | 0.31 | 1.5 |  |  |  |  |  |  | 
15 | O=C(CN1CCC(N2CCCCC2)CC1)Nc1ccc(NC(=O)Nc2ccc(N(CCCl)CCCl)cc2)cc1 [BO-2117] | 7.24 | 14.9 | 14.4 | 1.14 | 4.24 |  |  |  |  |  |  | 
16 | CCN(CC)CC(=O)Nc1ccc(NC(=O)Nc2ccc(N(CCCl)CCCl)cc2)cc1 [BO-2094, N-(4-(3-(4-(Bis(2-chloroethyl)amino)phenyl)ureido)-phenyl)-2-(diethylamino)-acetamide] | 3.57 | 0.93 | 3.43 |  | 1.7 |  |  |  |  |  |  | 
17 | O=C(CCN1CCCC1)Nc1cccc(NC(=O)Nc2ccc(N(CCCl)CCCl)cc2)c1 [BO-2121] | 10.3 | 9.84 | 4.33 | 0.67 | 5.11 |  |  |  |  |  |  | 
18 | Cc1cc(NC(=O)Nc2ccc(N(CCCl)CCCl)cc2)cc(Nc2c3ccccc3nc3ccccc23)c1 [BO-1079, 1-[3-(acridin-9-ylamino)-5-methylphenyl]-3-{4-[bis(2-chloroethyl)amino]phenyl}urea] |  |  |  |  |  | 1/1, >99% tumor | 9 | 0.14 | 0.8 | 0.53 | 0.38 | 
19 | O=C(CN1CCC(N2CCCCC2)CC1)Nc1cccc(NC(=O)Nc2ccc(N(CCCl)CCCl)cc2)c1 [BO-2188] | 25.9 | 12.3 | 12.8 | 30.4 | 6.15 |  |  |  |  |  |  | 
20 | CCN(CC)CCC(=O)Nc1cccc(NC(=O)Nc2ccc(N(CCCl)CCCl)cc2)c1 [BO-2120] | 13 | 6.79 | 5.77 | 0.86 | 3.21 |  |  |  |  |  |  | 
21 | O=C(CN1CCCC1)Nc1ccc(NC(=O)Nc2ccc(N(CCCl)CCCl)cc2)cc1 [BO-2093] | 3.52 | 0.95 | 3.41 | 0.26 |  |  |  |  |  |  |  | 
22 | O=C(CCN1CCOCC1)Nc1ccc(NC(=O)Nc2ccc(N(CCCl)CCCl)cc2)cc1 [BO-2074] | 9.74 | 3.95 | 15.2 | 1.06 | 7.02 |  |  |  |  |  |  | 
23 | Cc1cccc2c(Nc3cc(CO)cc(NC(=O)Oc4ccc(N(CCCl)CCCl)cc4)c3)c3ccccc3nc12 [BO-1063, [3-hydroxymethyl-5-(4-methylacridin-9-ylamino)phenyl]carbamic acid 4-[bis(2-chloroethyl)-amino]phenyl ester] |  |  |  |  |  |  |  | 0.07 | 0.44 | 0.08 | 0.1 | Too high dose
24 | O=C(CCN1CCCCC1)Nc1ccc(NC(=O)Nc2ccc(N(CCCl)CCCl)cc2)cc1 [BO-2057] | 2.28 | 1.58 | 3.03 |  |  |  |  |  |  |  |  | 
25 | O=C(CN1CCOCC1)Nc1cccc(NC(=O)Nc2ccc(N(CCCl)CCCl)cc2)c1 [BO-2182] | 35.8 | 19.5 | 26.4 | 3.87 | 13 |  |  |  |  |  |  | 
